Laboratory results reported in US6737383B1, “Herbicidal oxadiazolidines” (priority 1999, dated 2004).

Key:
blackgrass = test: Test B pre/postemergence blackgrass; assay type: in vivo, Alopecurus myosuroides
Method in brief: (§1)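 Herbicidal effect was estimated by eye on a ten-point control scale after plants spent twelve to sixteen days in a greenhouse following soil or foliar treatment. Foliar sprays targeted plants at one to four leaves; all doses were formulated in a non-phytotoxic solvent with surfactant.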

surinam grass = test: Test B pre/postemergence surinam grass; assay type: in vivo, Brachiaria decumbens
Method in brief: as §1

cocklebur = test: Test B pre/postemergence cocklebur; assay type: in vivo, Xanthium strumarium
Method in brief: as §1

corn = test: Test B pre/postemergence corn; assay type: in vivo, Zea mays
Method in brief: as §1

crabgrass = test: Test B pre/postemergence crabgrass; assay type: in vivo, Digitaria sanguinalis
Method in brief: as §1

giant foxtail = test: Test B pre/postemergence giant foxtail; assay type: in vivo, Setaria faberii
Method in brief: as §1

morningglory = test: Test B pre/postemergence morningglory; assay type: in vivo, Ipomoea hederacea; details: for Plant response rating, Morningglory: scale of 0 to 10 where 0 is no effect and 10 is complete control
Method in brief: as §1

pigweed = test: Test B pre/postemergence pigweed; assay type: in vivo, Amaranthus retroflexus; details: for Plant response rating, Redroot pigweed: scale of 0 to 10 where 0 is no effect and 10 is complete control
Method in brief: as §1

rape = test: Test B pre/postemergence rape; assay type: in vivo, Brassica napus; details: for Plant response rating, Rape: scale of 0 to 10 where 0 is no effect and 10 is complete control
Method in brief: as §1

sugar beet = test: Test B pre/postemergence sugar beet; assay type: in vivo, Beta vulgaris; details: for Plant response rating, Sugarbeets: scale of 0 to 10 where 0 is no effect and 10 is complete control
Method in brief: as §1

velvetleaf = test: Test B pre/postemergence velvetleaf; assay type: in vivo, Abutilon theophrasti; details: for Plant response rating, Velvetleaf: scale of 0 to 10 where 0 is no effect and 10 is complete control
Method in brief: as §1

wild oat = test: Test B pre/postemergence wild oat; assay type: in vivo, Avena fatua; details: for Plant response rating, Wild oats: scale of 0 to 10 where 0 is no effect and 10 is complete control
Method in brief: as §1

rice = test: Test B flood test rice; assay type: in vivo, Oryza sativa
Method in brief: (§2)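 Flood test on plants grown to the 2-leaf stage; treated plants kept in greenhouse twelve to sixteen days, then visually rated against controls on a 0 (no effect) to 10 (complete control) scale.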

smallflower flatsedge = test: Test B flood test smallflower flatsedge; assay type: in vivo, Cyperus difformis
Method in brief: as §2

bamyardgrass = test: Test B flood test barnyardgrass; assay type: in vivo, Echinochloa crus-galli
Method in brief: as §2

[1] = Postemergence, Rate 250 g/ha, scale 0 to 10
[2] = Postemergence, Rate 500 g/ha, scale of 0 to 10 where 0 is no effect and 10 is complete control
[3] = Preemergence, Rate 62 g/ha, scale of 0 to 10 where 0 is no effect and 10 is complete control
[4] = Preemergence, Rate 125 g/ha, scale of 0 to 10 where 0 is no effect and 10 is complete control
[5] = Preemergence, Rate 250 g/ha, scale 0 to 10, 0 is no effect, 10 is complete control
[6] = Preemergence, Rate 500 g/ha, scale 0 to 10, 0 is no effect, 10 is complete control
[7] = Rate 62 g/ha, Postemergence, scale 0 to 10, 0 no effect, 10 complete control
[8] = Rate 125 g/ha, Postemergence, scale 0 to 10, 0 is no effect, 10 is complete control
[9] = Rate 62 g/ha, flood test species, Pre-emergence, visual evaluation after twelve to sixteen days
[10] = Rate 125 g/ha, under heading Pre-emergence, flood test species, visual evaluation after twelve to sixteen days
[11] = Rate 250 g/ha, Pre-emergence (flood test species), scale 0 to 10, 0 is no effect, 10 is complete control
[12] = Rate 500 g/ha, Pre-emergence, flood test species, scale 0 to 10 (0 no effect, 10 complete control)

## C=CC(OC)n1c(=O)on(C(=O)N(c2ccc(F)cc2)C(C)C)c1=O (centres unmarked) [Compound 452]
blackgrass; [1]
  Blackgrass plant response rating: 3
blackgrass; [2]
  Blackgrass plant response rating: 5
blackgrass; [3]
  Plant response rating, Blackgrass: 0
blackgrass; [4]
  Plant response rating, Blackgrass: 0
blackgrass; [5]
  Blackgrass plant response rating: 2
blackgrass; [6]
  Blackgrass plant response rating: 2
blackgrass; [7]
  Blackgrass plant response rating: 0
blackgrass; [8]
  Blackgrass plant response rating: 0
Surinam grass; Postemergence, Rate 250 g/ha, scale 0 to 10, 0 no effect, 10 complete control
  B. signalgrass plant response rating: 0
Surinam grass; [2]
  B. signalgrass plant response rating: 0
Surinam grass; [3]
  Plant response rating, B. signalgrass: 0
Surinam grass; [4]
  Plant response rating, B. signalgrass: 0
Surinam grass; [5]
  B. signalgrass plant response rating: 0
Surinam grass; [6]
  B. signalgrass plant response rating: 0
Surinam grass; [7]
  B. signalgrass plant response rating: 0
Surinam grass; [8]
  B. signalgrass plant response rating: 0
cocklebur; [1]
  Cocklebur plant response rating: 0
cocklebur; [2]
  Cocklebur plant response rating: 0
cocklebur; [3]
  Plant response rating, Cocklebur: 0
cocklebur; [4]
  Plant response rating, Cocklebur: 0
cocklebur; [5]
  Cocklebur plant response rating: 0
cocklebur; [6]
  Cocklebur plant response rating: 0
cocklebur; [7]
  Cocklebur plant response rating: 0
cocklebur; [8]
  Cocklebur plant response rating: 0
corn; [1]
  Corn plant response rating: 0
corn; [2]
  Corn plant response rating: 0
corn; [3]
  Plant response rating, Corn: 0
corn; [4]
  Plant response rating, Corn: 0
corn; [5]
  Corn plant response rating: 0
corn; [6]
  Corn plant response rating: 0
corn; [7]
  Corn plant response rating: 0
corn; [8]
  Corn plant response rating: 0
crabgrass; [1]
  Crabgrass plant response rating: 6
crabgrass; [2]
  Crabgrass plant response rating: 6
crabgrass; [3]
  Plant response rating, Crabgrass: 5
crabgrass; [4]
  Plant response rating, Crabgrass: 5
crabgrass; [5]
  Crabgrass plant response rating: 5
crabgrass; [6]
  Crabgrass plant response rating: 5
crabgrass; [7]
  Crabgrass plant response rating: 3
Giant foxtail; [1]
  Giant foxtail plant response rating: 7
Giant foxtail; [2]
  Giant foxtail plant response rating: 7
Giant foxtail; [3]
  Plant response rating, Giant foxtail: 2
Giant foxtail; [4]
  Plant response rating, Giant foxtail: 3
Giant foxtail; [5]
  Giant foxtail plant response rating: 4
Giant foxtail; [6]
  Giant foxtail plant response rating: 7
Giant foxtail; [7]
  Giant foxtail plant response rating: 2
Giant foxtail; [8]
  Giant foxtail plant response rating: 4
morningglory; [1]
  Morningglory plant response rating: 2
morningglory; Preemergence, Rate 62 g/ha
  Plant response rating, Morningglory: 0
morningglory; Preemergence, Rate 125 g/ha
  Plant response rating, Morningglory: 0
morningglory; [5]
  Morningglory plant response rating: 0
morningglory; [6]
  Morningglory plant response rating: 0
morningglory; [7]
  Morningglory plant response rating: 1
morningglory; [8]
  Morningglory plant response rating: 2
pigweed; [1]
  Redroot pigweed plant response rating: 0
pigweed; Preemergence, Rate 62 g/ha
  Plant response rating, Redroot pigweed: 0
pigweed; Preemergence, Rate 125 g/ha
  Plant response rating, Redroot pigweed: 0
pigweed; [5]
  Redroot pigweed plant response rating: 0
pigweed; [6]
  Redroot pigweed plant response rating: 0
pigweed; [7]
  Redroot pigweed plant response rating: 0
pigweed; [8]
  Redroot pigweed plant response rating: 0
rape; [1]
  Rape plant response rating: 0
rape; Preemergence, Rate 62 g/ha
  Plant response rating, Rape: 0
rape; Preemergence, Rate 125 g/ha
  Plant response rating, Rape: 0
rape; [5]
  Rape plant response rating: 0
rape; [6]
  Rape plant response rating: 0
rape; [7]
  Rape plant response rating: 0
rape; [8]
  Rape plant response rating: 0
Sugar beet; [1]
  Sugarbeets plant response rating: 0
Sugar beet; Preemergence, Rate 62 g/ha
  Plant response rating, Sugarbeets: 0
Sugar beet; Preemergence, Rate 125 g/ha
  Plant response rating, Sugarbeets: 0
Sugar beet; [5]
  Sugarbeets plant response rating: 0
Sugar beet; [6]
  Sugarbeets plant response rating: 0
Sugar beet; [7]
  Sugarbeets plant response rating: 0
Sugar beet; [8]
  Sugarbeets plant response rating: 0
velvetleaf; [1]
  Velvetleaf plant response rating: 0
velvetleaf; Preemergence, Rate 62 g/ha
  Plant response rating, Velvetleaf: 0
velvetleaf; Preemergence, Rate 125 g/ha
  Plant response rating, Velvetleaf: 0
velvetleaf; [5]
  Velvetleaf plant response rating: 0
velvetleaf; [6]
  Velvetleaf plant response rating: 0
velvetleaf; [7]
  Velvetleaf plant response rating: 0
velvetleaf; [8]
  Velvetleaf plant response rating: 0
Wild oat; [1]
  Wild oats plant response rating: 0
Wild oat; Preemergence, Rate 62 g/ha
  Plant response rating, Wild oats: 0
Wild oat; Preemergence, Rate 125 g/ha
  Plant response rating, Wild oats: 0
Wild oat; [5]
  Wild oats plant response rating: 0
Wild oat; [6]
  Wild oats plant response rating: 0
Wild oat; [7]
  Wild oats plant response rating: 0
Wild oat; [8]
  Wild oats plant response rating: 0
rice; [9]
  Plant response rating, Rice (0 to 10 scale, 0 is no effect, 10 is complete control): 0
rice; [10]
  Rice plant response rating (0 to 10 scale, 0 is no effect, 10 is complete control): 0
rice; [11]
  Rice plant response rating: 0
rice; [12]
  Rice plant response rating: 0
Smallflower flatsedge; [9]
  Plant response rating, S. Flatsedge (0 to 10 scale, 0 is no effect, 10 is complete control): 0
Smallflower flatsedge; [10]
  S. Flatsedge plant response rating (0 to 10 scale, 0 is no effect, 10 is complete control): 0
Smallflower flatsedge; [11]
  S. Flatsedge plant response rating: 0
Smallflower flatsedge; [12]
  S. Flatsedge plant response rating: 0
bamyardgrass; [9]
  Plant response rating, Barnyardgrass (0 to 10 scale, 0 is no effect, 10 is complete control): 0
bamyardgrass; [10]
  Barnyardgrass plant response rating (0 to 10 scale, 0 is no effect, 10 is complete control): 0
bamyardgrass; [11]
  Barnyardgrass plant response rating: 0
bamyardgrass; [12]
  Barnyardgrass plant response rating: 0
